In patent US11542240B2, “STK19 inhibitors for treatment of cancer” (TRUSTEES OF BOSTON UNIVERSITY, priority 2018, dated 2023):
Where two headings read alike, the source gives them in different places.

Experiments:
Assay in all cases: biochemical
Type in all cases: binding
[1] = target: panel of 468 diverse kinases (Homo sapiens, UniProt Q96BR1); settings: SGK3; 1000 nM; read-out: Percent Control
[2] = target: panel of 468 diverse kinases (Homo sapiens, UniProt Q9Y2H1); settings: NDR2; 1000 nM; read-out: Percent Control
[3] = target: panel of 468 diverse kinases (Homo sapiens, UniProt P36507); settings: MEK2; 1000 nM; read-out: Percent Control
[4] = target: panel of 468 diverse kinases (Homo sapiens, UniProt P42684); settings: ABL2; 1000 nM; read-out: Percent Control
[5] = target: panel of 468 diverse kinases (Homo sapiens, UniProt Q9P289); settings: MST4; 1000 nM; read-out: Percent Control
[6] = target: panel of 468 diverse kinases (Homo sapiens, UniProt Q2M2I8); settings: AAK1; 1000 nM; read-out: Percent Control
[7] = target: panel of 468 diverse kinases (Homo sapiens, UniProt Q6ZN16); settings: MAP3K15; 1000 nM; read-out: Percent Control
[8] = target: panel of 468 diverse kinases (Homo sapiens, UniProt Q6P2M8); settings: CAMK1B; 1000 nM; read-out: Percent Control
[9] = target: panel of 468 diverse kinases (Homo sapiens, UniProt P08631); settings: HCK; 1000 nM; read-out: Percent Control
[10] = target: panel of 468 diverse kinases (Homo sapiens, UniProt Q8IVW4); settings: CDKL3; 1000 nM; read-out: Percent Control
[11] = target: panel of 468 diverse kinases (Homo sapiens, UniProt P00519, M351T); settings: ABL1(M351T)-phosphorylated; 1000 nM; read-out: Percent Control
[12] = target: panel of 468 diverse kinases (Homo sapiens, UniProt Q8N5S9); settings: CAMKK1; 1000 nM; read-out: Percent Control
[13] = target: panel of 468 diverse kinases (Homo sapiens, UniProt Q99755); settings: PIP5KIV; 1000 nM; read-out: Percent Control
[14] = target: panel of 468 diverse kinases (Homo sapiens, UniProt Q86Y07); settings: VRK2; 1000 nM; read-out: Percent Control
[15] = target: panel of 468 diverse kinases (Homo sapiens, UniProt Q9UF33); settings: EPHA6; 1000 nM; read-out: Percent Control
[16] = target: panel of 468 diverse kinases (Homo sapiens, UniProt Q9BZL6); settings: PRKD2; 1000 nM; read-out: Percent Control
[17] = target: panel of 468 diverse kinases (Homo sapiens, UniProt Q12852); settings: DLK; 1000 nM; read-out: Percent Control
[18] = target: panel of 468 diverse kinases (Homo sapiens, UniProt Q9Y243); settings: AKT3; 1000 nM; read-out: Percent Control
[19] = target: panel of 468 diverse kinases (Homo sapiens, UniProt P10721); settings: 1000 nM, read-out: Percent Control
[20] = target: panel of 468 diverse kinases (Homo sapiens, UniProt Q13164); settings: ERK5; 1000 nM; read-out: Percent Control
[21] = target: panel of 468 diverse kinases (Homo sapiens, UniProt Q52WX2); settings: SBK1; 1000 nM; read-out: Percent Control
[22] = target: panel of 468 diverse kinases (Homo sapiens, UniProt P42338); settings: PIK3CB; 1000 nM; read-out: Percent Control
[23] = target: panel of 468 diverse kinases (Homo sapiens, UniProt O14578); settings: CIT; 1000 nM; read-out: Percent Control
[24] = target: panel of 468 diverse kinases (Homo sapiens, UniProt Q99759); settings: MAP3K3; 1000 nM; read-out: Percent Control
[25] = target: panel of 468 diverse kinases (Homo sapiens, UniProt O75676); settings: 1000 nM, read-out: Percent Control
[26] = target: panel of 468 diverse kinases (Homo sapiens, UniProt Q9H2K8); settings: TAOK3; 1000 nM; read-out: Percent Control
[27] = target: panel of 468 diverse kinases (Homo sapiens, UniProt P53671); settings: LIMK2; 1000 nM; read-out: Percent Control
[28] = target: panel of 468 diverse kinases (Homo sapiens, UniProt Q9HBH9); settings: MKNK2; 1000 nM; read-out: Percent Control
[29] = target: panel of 468 diverse kinases (Homo sapiens, UniProt Q9NSY1); settings: BIKE; 1000 nM; read-out: Percent Control
[30] = target: panel of 468 diverse kinases (Homo sapiens, UniProt P21860); settings: ERBB3; 1000 nM; read-out: Percent Control
[31] = target: panel of 468 diverse kinases (Homo sapiens, UniProt Q13873); settings: BMPR2; 1000 nM; read-out: Percent Control

Chain of panel of 468 diverse kinases (Homo sapiens, UniProt P10721) (P10721 26-976 limits assumed): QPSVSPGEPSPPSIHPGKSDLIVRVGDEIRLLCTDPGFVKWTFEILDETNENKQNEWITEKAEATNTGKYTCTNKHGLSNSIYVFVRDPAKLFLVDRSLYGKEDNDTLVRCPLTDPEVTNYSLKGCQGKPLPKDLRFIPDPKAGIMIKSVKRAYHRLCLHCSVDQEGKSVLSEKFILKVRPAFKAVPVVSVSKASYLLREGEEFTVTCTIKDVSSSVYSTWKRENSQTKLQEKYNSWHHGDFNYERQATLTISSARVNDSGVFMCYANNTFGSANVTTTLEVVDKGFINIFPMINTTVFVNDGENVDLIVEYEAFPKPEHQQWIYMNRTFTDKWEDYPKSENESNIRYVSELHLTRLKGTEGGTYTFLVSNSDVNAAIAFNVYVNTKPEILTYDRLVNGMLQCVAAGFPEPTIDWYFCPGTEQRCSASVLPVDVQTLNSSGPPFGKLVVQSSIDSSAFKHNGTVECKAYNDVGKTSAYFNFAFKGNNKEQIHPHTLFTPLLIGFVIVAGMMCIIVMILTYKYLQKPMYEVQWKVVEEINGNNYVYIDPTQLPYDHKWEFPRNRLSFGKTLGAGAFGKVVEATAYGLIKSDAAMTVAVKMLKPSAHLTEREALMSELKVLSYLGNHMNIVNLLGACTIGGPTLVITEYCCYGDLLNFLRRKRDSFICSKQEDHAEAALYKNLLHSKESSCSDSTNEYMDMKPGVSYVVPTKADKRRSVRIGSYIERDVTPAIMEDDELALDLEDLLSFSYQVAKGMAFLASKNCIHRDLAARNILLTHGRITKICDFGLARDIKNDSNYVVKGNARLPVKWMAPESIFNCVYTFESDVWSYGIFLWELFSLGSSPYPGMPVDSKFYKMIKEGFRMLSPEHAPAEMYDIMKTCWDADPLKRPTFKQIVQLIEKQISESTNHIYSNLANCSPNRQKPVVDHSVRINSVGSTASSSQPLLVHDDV
Chain of panel of 468 diverse kinases (Homo sapiens, UniProt Q9Y2H1) (Q9Y2H1 2-464 limits assumed): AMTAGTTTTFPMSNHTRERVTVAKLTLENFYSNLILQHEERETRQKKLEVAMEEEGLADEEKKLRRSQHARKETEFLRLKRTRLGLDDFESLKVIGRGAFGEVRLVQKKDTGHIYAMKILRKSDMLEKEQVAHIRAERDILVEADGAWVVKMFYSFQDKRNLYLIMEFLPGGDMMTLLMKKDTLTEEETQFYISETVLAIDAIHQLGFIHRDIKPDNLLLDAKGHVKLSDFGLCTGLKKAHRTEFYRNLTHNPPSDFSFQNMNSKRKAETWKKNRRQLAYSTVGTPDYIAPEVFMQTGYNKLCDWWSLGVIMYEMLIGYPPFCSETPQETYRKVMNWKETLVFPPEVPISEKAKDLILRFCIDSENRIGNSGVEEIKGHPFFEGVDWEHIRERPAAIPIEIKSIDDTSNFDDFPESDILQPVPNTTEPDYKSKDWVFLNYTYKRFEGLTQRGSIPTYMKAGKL
Chain of panel of 468 diverse kinases (Homo sapiens, UniProt P08631) (P08631 2-526 limits assumed): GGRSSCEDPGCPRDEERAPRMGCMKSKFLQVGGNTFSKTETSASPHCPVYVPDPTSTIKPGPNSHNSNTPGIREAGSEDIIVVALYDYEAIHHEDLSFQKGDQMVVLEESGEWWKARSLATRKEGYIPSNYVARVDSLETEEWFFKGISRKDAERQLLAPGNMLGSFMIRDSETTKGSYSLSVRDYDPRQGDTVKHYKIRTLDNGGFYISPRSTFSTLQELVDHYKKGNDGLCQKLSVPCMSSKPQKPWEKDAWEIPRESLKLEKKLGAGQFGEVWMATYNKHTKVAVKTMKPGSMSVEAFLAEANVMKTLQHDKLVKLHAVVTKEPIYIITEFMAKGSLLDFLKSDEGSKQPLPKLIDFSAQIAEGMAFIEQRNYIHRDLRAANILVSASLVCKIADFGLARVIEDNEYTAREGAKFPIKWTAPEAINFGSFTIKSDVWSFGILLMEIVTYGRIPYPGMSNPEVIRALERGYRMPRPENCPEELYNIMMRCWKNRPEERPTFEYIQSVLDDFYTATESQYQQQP
Chain of panel of 468 diverse kinases (Homo sapiens, UniProt Q13164) (Q13164 2-816 limits assumed): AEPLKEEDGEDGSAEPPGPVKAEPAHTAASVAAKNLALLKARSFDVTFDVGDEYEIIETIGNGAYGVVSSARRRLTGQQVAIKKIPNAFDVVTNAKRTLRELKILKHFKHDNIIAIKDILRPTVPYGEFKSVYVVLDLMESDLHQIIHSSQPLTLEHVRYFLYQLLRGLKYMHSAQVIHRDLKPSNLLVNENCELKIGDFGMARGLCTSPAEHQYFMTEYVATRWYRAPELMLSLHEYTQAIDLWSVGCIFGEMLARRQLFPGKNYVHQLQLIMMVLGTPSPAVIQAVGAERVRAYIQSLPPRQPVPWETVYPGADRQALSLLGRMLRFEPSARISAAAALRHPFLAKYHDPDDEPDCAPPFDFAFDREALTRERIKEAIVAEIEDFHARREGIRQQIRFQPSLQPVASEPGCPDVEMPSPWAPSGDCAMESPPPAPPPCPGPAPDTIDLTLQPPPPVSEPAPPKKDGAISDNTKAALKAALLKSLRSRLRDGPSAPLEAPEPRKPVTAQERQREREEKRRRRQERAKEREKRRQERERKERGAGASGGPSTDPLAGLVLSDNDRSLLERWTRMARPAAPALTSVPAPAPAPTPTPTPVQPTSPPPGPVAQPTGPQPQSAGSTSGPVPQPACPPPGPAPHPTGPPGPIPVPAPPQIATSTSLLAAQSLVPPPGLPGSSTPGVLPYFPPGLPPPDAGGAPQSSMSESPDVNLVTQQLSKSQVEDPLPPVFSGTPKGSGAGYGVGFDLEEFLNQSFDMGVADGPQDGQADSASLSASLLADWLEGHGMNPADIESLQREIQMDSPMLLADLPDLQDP
Chain of panel of 468 diverse kinases (Homo sapiens, UniProt Q9UF33) (Q9UF33 23-1036 limits assumed): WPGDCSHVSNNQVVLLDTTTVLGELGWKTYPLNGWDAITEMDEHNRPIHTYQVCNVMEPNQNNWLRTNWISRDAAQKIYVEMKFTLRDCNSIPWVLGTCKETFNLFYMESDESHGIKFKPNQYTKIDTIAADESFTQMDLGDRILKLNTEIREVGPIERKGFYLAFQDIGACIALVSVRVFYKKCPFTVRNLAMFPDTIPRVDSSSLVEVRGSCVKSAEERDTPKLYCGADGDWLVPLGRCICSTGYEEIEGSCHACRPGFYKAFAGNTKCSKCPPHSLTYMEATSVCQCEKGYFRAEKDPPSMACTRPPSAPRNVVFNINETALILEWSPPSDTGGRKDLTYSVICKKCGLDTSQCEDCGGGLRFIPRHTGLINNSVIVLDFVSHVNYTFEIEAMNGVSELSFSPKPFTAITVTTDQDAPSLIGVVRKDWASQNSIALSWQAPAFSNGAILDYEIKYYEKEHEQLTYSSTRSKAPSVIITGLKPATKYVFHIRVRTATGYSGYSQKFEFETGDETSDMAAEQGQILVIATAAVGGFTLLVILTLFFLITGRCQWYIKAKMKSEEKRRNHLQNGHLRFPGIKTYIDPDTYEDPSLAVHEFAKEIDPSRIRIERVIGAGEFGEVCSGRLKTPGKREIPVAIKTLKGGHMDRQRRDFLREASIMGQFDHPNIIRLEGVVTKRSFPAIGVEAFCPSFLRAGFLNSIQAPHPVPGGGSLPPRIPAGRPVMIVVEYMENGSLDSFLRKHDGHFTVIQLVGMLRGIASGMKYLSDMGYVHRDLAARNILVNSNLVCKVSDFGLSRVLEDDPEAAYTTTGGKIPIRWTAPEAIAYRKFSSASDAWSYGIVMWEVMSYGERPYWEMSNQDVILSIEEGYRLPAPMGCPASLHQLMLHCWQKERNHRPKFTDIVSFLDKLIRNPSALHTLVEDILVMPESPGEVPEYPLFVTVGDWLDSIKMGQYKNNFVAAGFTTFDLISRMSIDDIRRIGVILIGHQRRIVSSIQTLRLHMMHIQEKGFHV
Chain of panel of 468 diverse kinases (Homo sapiens, UniProt P42684) (P42684 2-1182 limits assumed): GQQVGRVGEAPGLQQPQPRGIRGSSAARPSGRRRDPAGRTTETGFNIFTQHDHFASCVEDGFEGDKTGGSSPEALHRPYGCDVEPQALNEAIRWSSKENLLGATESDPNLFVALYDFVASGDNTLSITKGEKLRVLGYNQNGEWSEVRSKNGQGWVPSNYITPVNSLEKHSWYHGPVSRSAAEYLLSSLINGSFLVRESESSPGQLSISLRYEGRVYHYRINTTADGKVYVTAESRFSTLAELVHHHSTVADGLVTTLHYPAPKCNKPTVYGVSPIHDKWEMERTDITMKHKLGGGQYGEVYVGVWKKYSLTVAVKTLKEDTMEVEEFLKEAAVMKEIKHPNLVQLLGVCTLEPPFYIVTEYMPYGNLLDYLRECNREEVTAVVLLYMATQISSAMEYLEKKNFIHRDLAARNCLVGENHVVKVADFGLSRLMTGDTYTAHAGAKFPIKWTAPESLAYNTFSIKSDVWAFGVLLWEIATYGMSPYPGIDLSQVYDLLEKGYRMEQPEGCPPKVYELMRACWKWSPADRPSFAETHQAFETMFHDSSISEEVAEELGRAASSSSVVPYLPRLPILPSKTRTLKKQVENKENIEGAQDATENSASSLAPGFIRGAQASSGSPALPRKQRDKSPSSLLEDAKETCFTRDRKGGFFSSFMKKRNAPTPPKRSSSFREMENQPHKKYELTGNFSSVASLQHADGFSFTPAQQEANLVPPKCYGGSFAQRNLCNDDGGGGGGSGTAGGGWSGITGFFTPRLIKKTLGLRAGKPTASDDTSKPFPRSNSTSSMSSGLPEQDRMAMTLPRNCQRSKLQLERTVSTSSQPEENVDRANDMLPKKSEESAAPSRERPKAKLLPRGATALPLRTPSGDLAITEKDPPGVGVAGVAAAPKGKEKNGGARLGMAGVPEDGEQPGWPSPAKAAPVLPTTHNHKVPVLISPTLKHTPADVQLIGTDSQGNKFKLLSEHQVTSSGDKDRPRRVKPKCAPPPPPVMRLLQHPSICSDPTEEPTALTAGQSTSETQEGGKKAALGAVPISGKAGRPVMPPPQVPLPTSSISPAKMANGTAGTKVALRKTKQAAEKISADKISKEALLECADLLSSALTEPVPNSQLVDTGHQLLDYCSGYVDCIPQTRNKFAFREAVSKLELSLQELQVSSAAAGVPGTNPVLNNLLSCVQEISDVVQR

COc1cc2nc(NC3CC3)nc(NC3CCN(C(C)C)CC3)c2cc1OC [Formula IV]
remaining activity at 1 µM [1]: 60%
remaining activity at 1 µM [2]: 100%
remaining activity at 1 µM [3]: 58%
remaining activity at 1 µM [4]: 98%
remaining activity at 1 µM [5]: 82%
remaining activity at 1 µM [6]: 91%
remaining activity at 1 µM [7]: 52%
remaining activity at 1 µM [8]: 59%
remaining activity at 1 µM [9]: 95%
remaining activity at 1 µM [10]: 66%
remaining activity at 1 µM [11]: 59%
remaining activity at 1 µM [12]: 97%
remaining activity at 1 µM [13]: 96%
remaining activity at 1 µM [14]: 56%
remaining activity at 1 µM [15]: 100%
remaining activity at 1 µM [16]: 64%
remaining activity at 1 µM [17]: 62%
remaining activity at 1 µM [18]: 91%
remaining activity at 1 µM ([19]; KIT-autoinhibited): 57%
remaining activity at 1 µM ([19]; KIT): 95%
remaining activity at 1 µM [20]: 86%
remaining activity at 1 µM [21]: 64%
remaining activity at 1 µM [22]: 71%
remaining activity at 1 µM [23]: 100%
remaining activity at 1 µM [24]: 55%
remaining activity at 1 µM ([25]; RPS6KA4(Kin.Dom.1-N-terminal)): 90%
remaining activity at 1 µM ([25]; RPS6KA4(Kin.Dom.2-C-terminal)): 46%
remaining activity at 1 µM [26]: 54%
remaining activity at 1 µM [27]: 96%
remaining activity at 1 µM [28]: 82%
remaining activity at 1 µM [29]: 100%
remaining activity at 1 µM [30]: 100%
remaining activity at 1 µM [31]: 40%
